According to ChEMBL document CHEMBL5634130, “Exploring the structural-activity relationship of hexahydropyrazino[1,2-d]pyrido[3,2-b][1,4]oxazine derivatives as potent and orally-bioavailable PARP7 inhibitors” (Eur J Med Chem, 2023):
pIC50: −log10 of the molar value. In brackets after ≈: the same amount, converted by molar mass.

Key:
[1] = Kinetic solubility of compound at pH 6.5; format: physicochemical; conditions: buffer, read-out: Kinetic_solubility
Cytochrome P450 2D6 = Cytochrome P450 2D6 (Homo sapiens, UniProt P10635); test: Inhibition of CYP2D6 in human liver microsomes using dextromethorphan as substrate preincubated for 10 mins followed by substrate addition measured for 30 mins by LC-MS analysis; format: ADME, Microsome
[2] = Toxicity in […] SCID mouse model xenografted with human NCI-H1373 cells assessed as body weight loss at 30 mg/kg, po measured for 21 days; format: organism-based; conditions: in vivo, 504 h, time 21 day
[3] = Metabolic stability in rat liver microsomes assessed as intrinsic clearance preincubated for 5 mins followed by NADPH addition measured for 1 hr by LC-MS analysis; format: ADME, Microsome; conditions: time 65 min, read-out: CLH
[4] = Volume of distribution at steady state in fasted ICR mouse at 2 mg/kg, iv measured for 24 hrs by LC-MS analysis; format: ADME, organism-based; conditions: in vivo, read-out: Vdss
[5] = Metabolic stability in monkey liver microsomes assessed as intrinsic clearance preincubated for 5 mins followed by NADPH addition measured for 1 hr by LC-MS analysis; format: ADME, Macaca mulatta, Microsome; conditions: rhesus monkey, time 65 min, read-out: CLH
Cytochrome P450 2C9 = Cytochrome P450 2C9 (Homo sapiens, UniProt P11712); test: Inhibition of CYP2C9 in human liver microsomes using diclofenac as substrate preincubated for 10 mins followed by substrate addition measured for 30 mins by LC-MS analysis; format: ADME, Microsome
[6] = Oral bioavailability in fasted Beagle dog at 10 mg/kg measured for 24 hrs by LC-MS analysis; format: ADME, organism-based, Canis lupus familiaris; conditions: in vivo
[7] = Metabolic stability in mouse liver microsomes assessed as intrinsic clearance preincubated for 5 mins followed by NADPH addition measured for 1 hr by LC-MS analysis; format: ADME, Microsome; conditions: time 65 min, read-out: CLH
[8] = Toxicity in […] SCID mouse model xenografted with human NCI-H1373 cells assessed as animal death at 30 mg/kg, po measured for 21 days; format: organism-based; conditions: in vivo, 504 h, time 21 day
[9] = Plasma protein binding in dog at 2 uM incubated for 1 hr by LC/MS analysis; format: ADME, cell-free, Canis lupus familiaris; conditions: read-out: PPB (converted)
[10] = Plasma protein binding in mouse at 2 uM incubated for 1 hr by LC/MS analysis; format: ADME, cell-free; conditions: read-out: PPB (converted)
[11] = Plasma protein binding in rat at 2 uM incubated for 1 hr by LC/MS analysis; format: ADME, cell-free; conditions: read-out: PPB (converted)
Cytochrome P450 2C19 = Cytochrome P450 2C19 (Homo sapiens, UniProt P33261); test: Inhibition of CYP2C19 in human liver microsomes using mephenytoin as substrate preincubated for 10 mins followed by substrate addition measured for 30 mins by LC-MS analysis; format: ADME, Microsome
[12] = Thermodynamic solubility of compound at pH 6.5; format: physicochemical; conditions: buffer, read-out: Therm_solubility
[13] = Cmax in fasted Beagle dog at 10 mg/kg, po measured for 24 hrs by LC-MS analysis; format: ADME, organism-based, Canis lupus familiaris; conditions: in vivo
[14] = Kinetic solubility of compound at pH 2; format: physicochemical; conditions: buffer, read-out: Kinetic_solubility
[15] = Plasma protein binding in human at 2 uM incubated for 1 hr by LC/MS analysis; format: ADME, cell-free; conditions: read-out: PPB (converted)
[16] = Tmax in fasted ICR mouse at 10 mg/kg, po measured for 24 hrs by LC-MS analysis; format: ADME, organism-based; conditions: in vivo
[17] = Volume of distribution at steady state in fasted Beagle dog at 2 mg/kg, iv measured for 24 hrs by LC-MS analysis; format: ADME, organism-based, Canis lupus familiaris; conditions: in vivo, read-out: Vdss
[18] = Half life in fasted ICR mouse at 2 mg/kg, iv measured for 24 hrs by LC-MS analysis; format: ADME, organism-based; conditions: in vivo
[19] = Thermodynamic solubility of compound at pH 2; format: physicochemical; conditions: buffer, read-out: Therm_solubility
Cytochrome P450 1A2 = biological target: T1, Cytochrome P450 1A2 (Homo sapiens, UniProt P05177); test: Inhibition of CYP1A2 in human liver microsomes using phenacetin as substrate preincubated for 10 mins followed by substrate addition measured for 30 mins by LC-MS analysis; format: ADME, Microsome
T1 sequence (P05177 whole entry): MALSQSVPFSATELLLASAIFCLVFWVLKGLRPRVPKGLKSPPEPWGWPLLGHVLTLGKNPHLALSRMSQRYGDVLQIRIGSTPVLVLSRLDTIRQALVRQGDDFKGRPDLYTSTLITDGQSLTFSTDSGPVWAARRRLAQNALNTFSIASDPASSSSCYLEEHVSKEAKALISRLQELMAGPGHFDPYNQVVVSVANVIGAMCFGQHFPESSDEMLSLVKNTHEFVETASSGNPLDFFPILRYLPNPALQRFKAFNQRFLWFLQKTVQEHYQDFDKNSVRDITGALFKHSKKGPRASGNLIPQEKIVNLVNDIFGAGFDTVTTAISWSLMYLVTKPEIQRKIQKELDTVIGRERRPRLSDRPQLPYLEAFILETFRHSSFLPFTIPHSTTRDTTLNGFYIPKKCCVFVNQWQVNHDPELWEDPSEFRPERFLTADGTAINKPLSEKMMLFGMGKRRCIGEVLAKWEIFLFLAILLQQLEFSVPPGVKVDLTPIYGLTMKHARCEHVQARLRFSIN

[20] = Passive permeability in MDCKII-MDR1 cells incubated for 2 hrs by LC-MS analysis; format: ADME, cell-based, Canis lupus familiaris; conditions: dog, MDCK-MDR1, read-out: permeability
[21] = Apparent permeability across apical to basolateral side in MDCKII-MDR1 cells incubated for 2 hrs by LC-MS analysis; format: ADME, cell-based, Canis lupus familiaris; conditions: dog, MDCK-MDR1
NCI-H1373 = test: Antitumor activity against human NCI-H1373 cells xenografted in […] SCID mouse model assessed as tumor growth inhibition at 30 mg/kg, po administered everyday measured after 21 days relative to control; format: functional; conditions: NCI-H1373, 504 h, time 21 day, read-out: TGI
[22] = Clearance in fasted ICR mouse at 2 mg/kg, iv measured for 24 hrs by LC-MS analysis; format: ADME, organism-based; conditions: in vivo
[23] = Half life in fasted Beagle dog at 10 mg/kg, po measured for 24 hrs by LC-MS analysis; format: ADME, organism-based, Canis lupus familiaris; conditions: in vivo
[24] = Plasma protein binding in monkey at 2 uM incubated for 1 hr by LC/MS analysis; format: ADME, cell-free, Macaca mulatta; conditions: rhesus monkey, read-out: PPB (converted)
[25] = Half life in fasted Beagle dog at 2 mg/kg, iv measured for 24 hrs by LC-MS analysis; format: ADME, organism-based, Canis lupus familiaris; conditions: in vivo
[26] = Tmax in fasted Beagle dog at 10 mg/kg, po measured for 24 hrs by LC-MS analysis; format: ADME, organism-based, Canis lupus familiaris; conditions: in vivo
[27] = AUC in fasted ICR mouse at 2 mg/kg, iv measured for 24 hrs by LC-MS analysis; format: ADME, organism-based; conditions: in vivo
[28] = Kinetic solubility of compound at pH 7.4; format: physicochemical; conditions: buffer, read-out: Kinetic_solubility
[29] = Oral bioavailability in fasted ICR mouse at 10 mg/kg measured for 24 hrs by LC-MS analysis; format: ADME, organism-based; conditions: in vivo
[30] = Metabolic stability in dog liver microsomes assessed as intrinsic clearance preincubated for 5 mins followed by NADPH addition measured for 1 hr by LC-MS analysis; format: ADME, Canis lupus familiaris, Microsome; conditions: time 65 min, read-out: CLH
[31] = Cmax in fasted ICR mouse at 10 mg/kg, po measured for 24 hrs by LC-MS analysis; format: ADME, organism-based; conditions: in vivo
[32] = AUC in fasted Beagle dog at 2 mg/kg, iv measured for 24 hrs by LC-MS analysis; format: ADME, organism-based, Canis lupus familiaris; conditions: in vivo, iv, 2 mg/kg, 24 h
[33] = AUC in fasted ICR mouse at 10 mg/kg, po measured for 24 hrs by LC-MS analysis; format: ADME, organism-based; conditions: in vivo
[34] = Apparent permeability across basolateral to apical side in MDCKII-MDR1 cells incubated for 2 hrs by LC-MS analysis; format: ADME, cell-based, Canis lupus familiaris; conditions: dog, MDCK-MDR1
[35] = Thermodynamic solubility of compound at pH 7.4; format: physicochemical; conditions: buffer, read-out: Therm_solubility
[36] = AUC in fasted Beagle dog at 10 mg/kg, po measured for 24 hrs by LC-MS analysis; format: ADME, organism-based, Canis lupus familiaris; conditions: in vivo
[37] = Metabolic stability in human liver microsomes assessed as intrinsic clearance preincubated for 5 mins followed by NADPH addition measured for 1 hr by LC-MS analysis; format: ADME, Microsome; conditions: time 65 min, read-out: CLH
Cytochrome P450 3A4 = Cytochrome P450 3A4 (Homo sapiens, UniProt P08684); test: Inhibition of CYP3A4 in human liver microsomes using midazolam as substrate preincubated for 10 mins followed by substrate addition measured for 30 mins by LC-MS analysis; format: ADME, Microsome
[38] = Half life in fasted ICR mouse at 10 mg/kg, po measured for 24 hrs by LC-MS analysis; format: ADME, organism-based; conditions: in vivo

Cytochrome P450 2C9, sequence (P11712 whole entry): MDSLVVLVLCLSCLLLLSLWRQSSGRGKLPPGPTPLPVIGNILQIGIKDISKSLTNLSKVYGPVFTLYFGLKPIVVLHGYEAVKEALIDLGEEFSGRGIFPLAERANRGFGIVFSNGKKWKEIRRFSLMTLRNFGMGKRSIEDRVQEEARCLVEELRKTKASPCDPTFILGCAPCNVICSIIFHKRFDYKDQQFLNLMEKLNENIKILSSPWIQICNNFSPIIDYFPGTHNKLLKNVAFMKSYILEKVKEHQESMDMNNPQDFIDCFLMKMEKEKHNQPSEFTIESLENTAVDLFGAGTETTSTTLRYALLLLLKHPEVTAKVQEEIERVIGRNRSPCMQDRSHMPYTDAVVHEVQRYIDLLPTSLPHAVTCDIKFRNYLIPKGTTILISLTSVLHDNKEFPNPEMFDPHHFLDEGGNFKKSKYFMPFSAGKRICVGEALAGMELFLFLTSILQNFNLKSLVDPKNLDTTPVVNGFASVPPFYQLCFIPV
Cytochrome P450 2D6, sequence (P10635 whole entry): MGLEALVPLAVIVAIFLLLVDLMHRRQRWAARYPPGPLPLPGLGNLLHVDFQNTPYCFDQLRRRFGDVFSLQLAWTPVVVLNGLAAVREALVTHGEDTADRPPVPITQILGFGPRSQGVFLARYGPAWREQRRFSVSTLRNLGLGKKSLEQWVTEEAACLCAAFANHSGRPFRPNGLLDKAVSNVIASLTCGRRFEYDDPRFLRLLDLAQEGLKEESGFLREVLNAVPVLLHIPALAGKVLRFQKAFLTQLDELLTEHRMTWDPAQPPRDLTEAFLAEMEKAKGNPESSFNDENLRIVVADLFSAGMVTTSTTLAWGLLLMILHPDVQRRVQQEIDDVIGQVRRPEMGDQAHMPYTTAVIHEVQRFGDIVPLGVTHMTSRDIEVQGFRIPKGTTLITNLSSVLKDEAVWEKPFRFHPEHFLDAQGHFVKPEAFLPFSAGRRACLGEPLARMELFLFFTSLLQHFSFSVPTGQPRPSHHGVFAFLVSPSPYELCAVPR
Cytochrome P450 2C19, sequence (P33261 whole entry): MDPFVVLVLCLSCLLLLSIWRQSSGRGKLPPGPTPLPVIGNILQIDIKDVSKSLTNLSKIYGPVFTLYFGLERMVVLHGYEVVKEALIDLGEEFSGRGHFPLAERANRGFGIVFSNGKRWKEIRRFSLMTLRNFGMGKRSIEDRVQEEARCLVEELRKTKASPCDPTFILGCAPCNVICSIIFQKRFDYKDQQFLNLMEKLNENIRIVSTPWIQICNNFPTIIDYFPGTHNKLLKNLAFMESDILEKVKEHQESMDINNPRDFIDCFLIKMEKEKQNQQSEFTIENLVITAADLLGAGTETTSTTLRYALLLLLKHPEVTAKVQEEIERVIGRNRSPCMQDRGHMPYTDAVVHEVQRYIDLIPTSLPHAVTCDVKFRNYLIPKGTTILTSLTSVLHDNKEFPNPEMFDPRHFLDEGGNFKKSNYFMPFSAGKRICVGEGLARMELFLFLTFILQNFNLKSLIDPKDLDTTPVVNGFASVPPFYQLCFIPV
Cytochrome P450 3A4, sequence (P08684 whole entry): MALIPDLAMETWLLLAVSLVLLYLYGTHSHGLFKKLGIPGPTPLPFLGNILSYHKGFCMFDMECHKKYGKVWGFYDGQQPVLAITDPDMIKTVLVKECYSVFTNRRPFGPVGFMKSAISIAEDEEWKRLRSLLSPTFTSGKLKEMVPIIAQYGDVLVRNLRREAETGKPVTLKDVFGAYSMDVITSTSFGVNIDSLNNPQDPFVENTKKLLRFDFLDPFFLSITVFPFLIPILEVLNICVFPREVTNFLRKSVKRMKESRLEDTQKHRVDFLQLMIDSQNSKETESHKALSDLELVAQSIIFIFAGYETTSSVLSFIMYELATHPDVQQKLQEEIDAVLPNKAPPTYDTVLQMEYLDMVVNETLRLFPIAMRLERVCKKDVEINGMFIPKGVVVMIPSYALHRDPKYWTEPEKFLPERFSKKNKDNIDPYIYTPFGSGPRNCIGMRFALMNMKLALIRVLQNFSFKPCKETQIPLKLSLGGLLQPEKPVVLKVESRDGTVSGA

SMILES: C[C@@H](COCCC(=O)N1CCN(c2ncc(C(F)(F)F)cn2)CC1)Nc1cn[nH]c(=O)c1C(F)(F)F [ATAMPARIB]
- solubility kinetic [1]: 151 µM (≈ 79 µg/mL)
- pIC50 (Cytochrome P450 2D6): < 4.52
- Activity [2]: Non-Toxic
- CLint scaled [3]: 110 mL/min/kg
- Vd [4]: 0.714 L/kg
- CLint scaled [5]: 94.8 mL/min/kg
- pIC50 (Cytochrome P450 2C9): 5.50
- bioavailability [6]: 23.4%
- CLint scaled [7]: 345 mL/min/kg
- Activity [8]: Non-Toxic
- fraction unbound at 1 h, 2 µM [9]: 0.131
- fraction unbound at 1 h, 2 µM [10]: 0.123
- fraction unbound at 1 h, 2 µM [11]: 0.233
- pIC50 (Cytochrome P450 2C19): < 4.52
- solubility thermodynamic [12]: 54.6 µg/mL (≈ 104 µM)
- Cmax [13]: 1800 ng/mL
- solubility kinetic [14]: 158 µM (≈ 82.7 µg/mL)
- fraction unbound at 1 h, 2 µM [15]: 0.194
- Tmax [16]: 0.25 h
- Vd [17]: 1.7 L/kg
- half-life [18]: 0.2 h
- solubility thermodynamic [19]: 68.9 µg/mL (≈ 132 µM)
- pIC50 (Cytochrome P450 1A2): < 4.52
- Papp at 2 h [20]: 1.03 ×10⁻⁶ cm/s
- Papp A→B at 2 h [21]: 0.28 ×10⁻⁶ cm/s
- inhibition in vivo at 30 mg/kg (NCI-H1373): 62.7%
- clearance [22]: 72.6 mL/min/kg
- t1/2 [23]: 2.5 h
- fraction unbound at 1 h, 2 µM [24]: 0.347
- half-life [25]: 1 h
- Tmax [26]: 1.33 h
- AUC at 24 h [27]: 470 ng·h/mL
- solubility kinetic [28]: 158 µM (≈ 82.7 µg/mL)
- bioavailability [29]: 26.2%
- CLint scaled [30]: 17.1 mL/min/kg
- Cmax [31]: 995 ng/mL
- AUC [32]: 4694 ng·h/mL
- AUC [33]: 617 ng·h/mL
- Papp B→A at 2 h [34]: 3.78 ×10⁻⁶ cm/s
- solubility thermodynamic [35]: 52.8 µg/mL (≈ 101 µM)
- AUC [36]: 5508 ng·h/mL
- CLint scaled [37]: 23.2 mL/min/kg
- pIC50 (Cytochrome P450 3A4): < 4.52
- t1/2 [38]: 2.7 h
